Results: US20160150782A1, “USE OF SELECTED PYRIDONE CARBOXAMIDES OR SALTS THEREOF AS ACTIVE SUBSTANCES AGAINST ABIOTIC PLANT STRESS” (BAYER CROPSCIENCE AKTIENGESELLSCHAFT, priority 2013, published 2016)

Columns and labels:
Format in all cases: in vivo
Zea mays (corn) [1] = test: Cold stress test on sprayed greenhouse plants, visual damage scoring (Table 1); settings: efficacy = reduction in damage intensity, spray WP, 600 l/ha water
Protocol: Seeds of monocotyledonous and dicotyledonous crop plants are sown in sandy loam in plastic or wood-fiber pots, covered with soil or sand and cultivated in a greenhouse under good growth conditions. The test plants are treated at the early leaf stage (BBCH10-BBCH13). To assure uniform water supply before commencement of stress, the potted plants are supplied with water by dam irrigation prior to substance application.
The inventive compounds, formulated in the form of wettable powders (WP), are sprayed onto the green parts of the plants as an aqueous suspension at an equivalent water application rate of 600 I/ha with addition of 0.2% wetting agent (e.g. agrotin). Substance application is followed immediately by stress treatment of the plants. For this purpose, the wood-fiber pots are transferred in plastic inserts in order to prevent them from subsequently drying out too quickly.
The duration of the respective stress phases is guided mainly by the condition of the stressed control plants. It is ended (by re-irrigating and transfer to a greenhouse with good growth conditions) as soon as irreversible damage is observed on the stressed control plants.
The end of the stress phase is followed by an approx. 4-14-day recovery phase, during which the plants are once again kept under good growth conditions in a greenhouse. The duration of the recovery phase is guided mainly by when the trial plants have attained a state which enables visual scoring of potential effects, and is therefore variable.
Once this juncture has been reached, the intensities of damage are scored visually in comparison to untreated, unstressed controls of the same age. The damage intensity is at first assessed in percent. These values are then used to calculate the efficacy of the test compounds by the following formula:
[formula] • E: Efficacy=reduction in damage intensity as a result of treatment with test substance • DIs: Damage intensity of the stressed control plants • DIt: Damage intensity of the plants treated with test compound […]

Triticum aestivum = test: Drought stress test on sprayed greenhouse plants, visual damage scoring (Table 4); settings: efficacy = reduction in damage intensity, dosage 250 g/ha, spray WP, 600 l/ha water
Protocol: (§1) Seeds of monocotyledonous and dicotyledonous crop plants are sown in sandy loam in plastic or wood-fiber pots, covered with soil or sand and cultivated in a greenhouse under good growth conditions. The test plants are treated at the early leaf stage (BBCH10-BBCH13). To assure uniform water supply before commencement of stress, the potted plants are supplied with water by dam irrigation prior to substance application. The inventive compounds, formulated in the form of wettable powders (WP), are sprayed onto the green parts of the plants as an aqueous suspension at an equivalent water application rate of 600 I/ha with addition of 0.2% wetting agent (e.g. agrotin). Substance application is followed immediately by stress treatment of the plants. For this purpose, the wood-fiber pots are transferred in plastic inserts in order to prevent them from subsequently drying out too quickly. Drought stress is induced by gradual drying out under the following conditions: “Day”: 14 hours with illumination at 26-30° C. “Night”: 10 hours without illumination at 18-20° C. The duration of the respective stress phases is guided mainly by the condition of the stressed control plants. […] The end of the stress phase is followed by an approx. 4-14-day recovery phase, during which the plants are once again kept under good growth conditions in a greenhouse. The duration of the recovery phase is guided mainly by when the trial plants have attained a state which enables visual scoring of potential effects, and is therefore variable. […] The damage intensity is at first assessed in percent.

Zea mays (corn) [2] = test: Drought stress test on sprayed greenhouse plants, visual damage scoring (Table 2); parameters: key: reduction in damage intensity, damage assessed in %; settings: efficacy = reduction in damage intensity, spray WP, 600 l/ha water
Protocol: as §1

Question: What does the source list for `Cc1cc(C(=O)NCCO)c(=O)[nH]c1C(F)(F)C(F)(F)F` [compound 265]?
Answer: E:E (ZEAMX) (Zea mays (corn) [1]; dosage 10 g/ha): >5; E (TRZAS) (Triticum aestivum): >5

Question: Which “E (ZEAMX)” value (Zea mays (corn) [2]; dosage 25 g/ha) does the source give for `CC(C)C(C)NC(=O)c1cc(Br)c(C(F)C(F)(F)F)[nH]c1=O` (stereo not drawn) [compound 2128] here?
Answer: >5

Question: And the “E:E (ZEAMX)” value (Zea mays (corn) [1]; dosage 250 g/ha)?
Answer: >5

Question: What does the source list for `CC(C)(C)CNC(=O)c1cc(I)c(C(F)(F)F)[nH]c1=O` [compound 2223]?
Answer: E (ZEAMX) (Zea mays (corn) [2]; dosage 250 g/ha): >5; E:E (ZEAMX) (Zea mays (corn) [1]; dosage 25 g/ha): >5
